Experimental data published in PubChem BioAssay (NCI).
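All cell lines were grown in 96-well plates and treated with compound for 48 hours. TGI is the concentration that stops growth completely.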

Legend:
Assay in all cases: NCI tumour cell line growth inhibition, 48 h
HS 578T breast = system: HS 578T breast
A549 NSCLC = system: A549 NSCLC
OVCAR-5 ovarian = system: OVCAR-5 ovarian
IGROV1 ovarian = system: IGROV1 ovarian
UACC-62 melanoma = system: UACC-62 melanoma
CCRF-CEM leukemia = system: CCRF-CEM leukemia
ACHN renal = system: ACHN renal
MCF7 breast = system: MCF7 breast
CAKI-1 renal = system: CAKI-1 renal
SNB-75 CNS = system: SNB-75 CNS
SNB-19 CNS = system: SNB-19 CNS
SF-268 CNS = system: SF-268 CNS
DU-145 prostate = system: DU-145 prostate
HCT-15 colon = system: HCT-15 colon
HOP-62 NSCLC = system: HOP-62 NSCLC
OVCAR-8 ovarian = system: OVCAR-8 ovarian
A498 renal = system: A498 renal
U251 CNS = system: U251 CNS
RXF 393 renal = system: RXF 393 renal
MDA-MB-231 breast = system: MDA-MB-231 breast
HOP-92 NSCLC = system: HOP-92 NSCLC
LOX IMVI melanoma = system: LOX IMVI melanoma
MDA-N = system: MDA-N
UACC-257 melanoma = system: UACC-257 melanoma
SR leukemia = system: SR leukemia
SK-OV-3 ovarian = system: SK-OV-3 ovarian
HT29 colon = system: HT29 colon
RPMI-8226 leukemia = system: RPMI-8226 leukemia
EKVX NSCLC = system: EKVX NSCLC
786-0 renal = system: 786-0 renal
KM12 colon = system: KM12 colon
MDA-MB-435 = system: MDA-MB-435
SK-MEL-2 melanoma = system: SK-MEL-2 melanoma
MOLT-4 leukemia = system: MOLT-4 leukemia
PC-3 prostate = system: PC-3 prostate
SK-MEL-28 melanoma = system: SK-MEL-28 melanoma
UO-31 renal = system: UO-31 renal
HCT-116 colon = system: HCT-116 colon
TK-10 renal = system: TK-10 renal
SN12C renal = system: SN12C renal
K-562 leukemia = system: K-562 leukemia
HL-60(TB) leukemia = system: HL-60(TB) leukemia
SW-620 colon = system: SW-620 colon
SK-MEL-5 melanoma = system: SK-MEL-5 melanoma
M14 melanoma = system: M14 melanoma

Measured: TGI

N#Cc1nc(-c2ccsc2)oc1N
> 100 µM: all assays above
